The target in test [1] is T1, Serine/threonine-protein kinase VRK3 (Homo sapiens) (UniProt Q8IV63).
T1 sequence (whole entry): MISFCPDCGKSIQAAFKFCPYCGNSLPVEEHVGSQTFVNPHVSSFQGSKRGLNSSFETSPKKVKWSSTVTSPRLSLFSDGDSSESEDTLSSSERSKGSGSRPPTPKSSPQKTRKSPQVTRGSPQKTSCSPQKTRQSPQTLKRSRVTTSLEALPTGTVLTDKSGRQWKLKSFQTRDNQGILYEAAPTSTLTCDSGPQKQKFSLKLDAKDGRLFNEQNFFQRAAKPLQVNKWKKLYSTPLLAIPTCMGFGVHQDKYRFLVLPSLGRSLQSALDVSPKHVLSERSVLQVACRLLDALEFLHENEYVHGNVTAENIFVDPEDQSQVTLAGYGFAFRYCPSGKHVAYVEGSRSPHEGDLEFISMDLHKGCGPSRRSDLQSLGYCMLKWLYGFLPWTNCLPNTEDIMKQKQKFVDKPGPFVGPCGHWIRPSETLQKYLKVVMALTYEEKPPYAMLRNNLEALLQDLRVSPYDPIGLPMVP

In test [2] the target is Cyclin-dependent kinase 16 (Homo sapiens) (UniProt Q00536).
The target of test [3] is Calcium/calmodulin-dependent protein kinase type 1D (Homo sapiens) (UniProt Q8IU85).
Test [4] has as its target Calcium/calmodulin-dependent protein kinase kinase 2 (Homo sapiens, UniProt Q96RR4).
In test [5] the target is Ribosomal protein S6 kinase alpha-3 (Homo sapiens) (UniProt P51812).
Test [6] has as its target T2, Dual specificity mitogen-activated protein kinase kinase 6 (Homo sapiens) (UniProt P52564).
T2 sequence (whole entry): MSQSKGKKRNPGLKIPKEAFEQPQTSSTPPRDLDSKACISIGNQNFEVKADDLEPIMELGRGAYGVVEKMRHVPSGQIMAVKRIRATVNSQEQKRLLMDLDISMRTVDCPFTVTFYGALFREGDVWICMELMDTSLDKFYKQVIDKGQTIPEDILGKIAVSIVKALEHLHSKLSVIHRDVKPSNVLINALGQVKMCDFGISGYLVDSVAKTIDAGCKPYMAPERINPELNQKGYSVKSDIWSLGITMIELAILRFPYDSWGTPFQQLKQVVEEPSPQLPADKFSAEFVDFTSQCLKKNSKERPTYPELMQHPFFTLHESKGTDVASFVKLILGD

Test [7] has as its target Calcium/calmodulin-dependent protein kinase type II subunit delta (Homo sapiens) (UniProt Q13557).
The target of test [8] is Serine/threonine-protein kinase RIO2 (Homo sapiens) (UniProt Q9BVS4).
Test [9] concerns the target Casein kinase I isoform gamma-3 (Homo sapiens) (UniProt Q9Y6M4).
The target of test [10] is Dual specificity mitogen-activated protein kinase kinase 2 (Homo sapiens, UniProt P36507).
The target in test [11] is T3, Calcium/calmodulin-dependent protein kinase type IV (Homo sapiens) (UniProt Q16566).
T3 sequence (whole entry): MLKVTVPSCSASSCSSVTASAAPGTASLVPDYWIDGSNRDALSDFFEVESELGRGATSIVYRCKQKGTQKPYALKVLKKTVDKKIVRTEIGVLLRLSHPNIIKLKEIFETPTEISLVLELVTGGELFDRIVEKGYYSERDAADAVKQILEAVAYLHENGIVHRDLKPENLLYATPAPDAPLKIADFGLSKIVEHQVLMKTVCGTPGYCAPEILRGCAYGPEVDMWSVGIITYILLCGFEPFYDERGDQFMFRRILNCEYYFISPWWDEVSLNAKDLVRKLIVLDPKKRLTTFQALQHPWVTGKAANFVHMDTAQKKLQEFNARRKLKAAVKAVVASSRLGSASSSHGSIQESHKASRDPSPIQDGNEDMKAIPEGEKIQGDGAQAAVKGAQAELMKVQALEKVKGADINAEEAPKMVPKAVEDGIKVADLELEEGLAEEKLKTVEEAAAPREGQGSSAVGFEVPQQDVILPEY

Test [12] has as its target Calcium/calmodulin-dependent protein kinase type 1G (Homo sapiens) (UniProt Q96NX5).
The target of test [13] is Mitogen-activated protein kinase 3 (Homo sapiens, UniProt P27361).
Test [14] deals with 5'-AMP-activated protein kinase catalytic subunit alpha-2 (Homo sapiens) (UniProt P54646).
Test [15] concerns the target Serine/threonine-protein kinase 25 (Homo sapiens) (UniProt O00506).
Test [16] deals with T4, Lymphokine-activated killer T-cell-originated protein kinase (Homo sapiens) (UniProt Q96KB5).
T4 sequence (whole entry): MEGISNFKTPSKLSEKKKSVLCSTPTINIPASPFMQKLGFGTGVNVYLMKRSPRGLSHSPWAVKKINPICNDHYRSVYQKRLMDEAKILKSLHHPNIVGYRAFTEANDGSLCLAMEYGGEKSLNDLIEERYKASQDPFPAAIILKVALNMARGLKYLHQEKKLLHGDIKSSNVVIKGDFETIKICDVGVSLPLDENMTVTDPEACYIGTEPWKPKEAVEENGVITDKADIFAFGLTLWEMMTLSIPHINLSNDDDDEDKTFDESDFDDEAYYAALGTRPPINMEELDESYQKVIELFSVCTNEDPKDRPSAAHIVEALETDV

Test [17] has as its target Serine/threonine-protein kinase 38 (Homo sapiens) (UniProt Q15208).
The target of test [18] is Serine/threonine-protein kinase 26 (Homo sapiens) (UniProt Q9P289).
Test [19] addresses Serine/threonine-protein kinase PLK1 (Homo sapiens) (UniProt P53350).
In test [20] the target is Serine/threonine-protein kinase Nek6 (Homo sapiens) (UniProt Q9HC98).
The target in test [21] is Death-associated protein kinase 3 (Homo sapiens) (UniProt O43293).

A word on the ΔTm: it is the shift of the melting midpoint relative to a reference.

Sequence of Serine/threonine-protein kinase 26 (Homo sapiens) (Q9P289 2-416 limits assumed): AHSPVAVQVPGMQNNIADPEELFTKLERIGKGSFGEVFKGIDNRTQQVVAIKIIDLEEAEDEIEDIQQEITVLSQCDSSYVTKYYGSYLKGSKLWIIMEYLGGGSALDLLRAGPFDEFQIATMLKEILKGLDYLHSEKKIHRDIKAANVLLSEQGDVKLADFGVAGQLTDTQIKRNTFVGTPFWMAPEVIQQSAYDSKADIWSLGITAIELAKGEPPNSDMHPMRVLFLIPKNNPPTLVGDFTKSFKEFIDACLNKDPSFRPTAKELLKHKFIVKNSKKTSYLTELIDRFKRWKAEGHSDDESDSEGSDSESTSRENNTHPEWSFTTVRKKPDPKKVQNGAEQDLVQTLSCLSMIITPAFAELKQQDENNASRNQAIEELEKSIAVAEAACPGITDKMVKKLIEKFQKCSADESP
Sequence of 5'-AMP-activated protein kinase catalytic subunit alpha-2 (Homo sapiens) (P54646 whole entry, looked up): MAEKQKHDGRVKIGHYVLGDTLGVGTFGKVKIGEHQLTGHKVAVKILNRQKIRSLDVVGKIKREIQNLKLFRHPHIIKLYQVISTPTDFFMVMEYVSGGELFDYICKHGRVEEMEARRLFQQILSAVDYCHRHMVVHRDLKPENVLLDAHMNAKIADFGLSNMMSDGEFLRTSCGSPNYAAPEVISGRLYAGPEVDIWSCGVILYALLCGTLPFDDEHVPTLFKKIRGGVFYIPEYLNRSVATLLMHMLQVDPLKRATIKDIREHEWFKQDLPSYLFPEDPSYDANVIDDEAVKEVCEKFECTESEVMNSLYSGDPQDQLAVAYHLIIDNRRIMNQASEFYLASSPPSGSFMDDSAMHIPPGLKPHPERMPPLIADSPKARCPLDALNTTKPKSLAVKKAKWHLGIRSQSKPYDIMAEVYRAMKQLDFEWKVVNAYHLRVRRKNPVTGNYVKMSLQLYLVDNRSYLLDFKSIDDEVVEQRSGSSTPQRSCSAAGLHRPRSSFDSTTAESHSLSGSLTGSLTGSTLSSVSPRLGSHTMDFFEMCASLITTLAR
Sequence of Serine/threonine-protein kinase RIO2 (Homo sapiens) (Q9BVS4 whole entry, looked up, canonical isoform): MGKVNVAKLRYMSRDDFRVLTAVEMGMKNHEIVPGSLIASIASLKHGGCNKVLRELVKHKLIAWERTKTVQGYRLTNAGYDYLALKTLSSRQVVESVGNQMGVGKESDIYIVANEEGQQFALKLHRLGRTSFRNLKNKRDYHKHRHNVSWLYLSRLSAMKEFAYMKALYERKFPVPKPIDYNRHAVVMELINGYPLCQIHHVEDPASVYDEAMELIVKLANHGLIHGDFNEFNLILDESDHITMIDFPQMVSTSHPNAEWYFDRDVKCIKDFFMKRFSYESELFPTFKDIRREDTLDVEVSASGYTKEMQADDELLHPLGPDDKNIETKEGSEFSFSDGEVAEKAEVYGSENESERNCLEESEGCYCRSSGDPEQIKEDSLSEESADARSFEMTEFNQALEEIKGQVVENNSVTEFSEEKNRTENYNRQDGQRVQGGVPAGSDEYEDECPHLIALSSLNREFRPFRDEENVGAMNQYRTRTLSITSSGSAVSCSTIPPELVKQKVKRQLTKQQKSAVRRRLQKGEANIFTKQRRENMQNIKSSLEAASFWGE
Sequence of Serine/threonine-protein kinase PLK1 (Homo sapiens) (P53350 whole entry): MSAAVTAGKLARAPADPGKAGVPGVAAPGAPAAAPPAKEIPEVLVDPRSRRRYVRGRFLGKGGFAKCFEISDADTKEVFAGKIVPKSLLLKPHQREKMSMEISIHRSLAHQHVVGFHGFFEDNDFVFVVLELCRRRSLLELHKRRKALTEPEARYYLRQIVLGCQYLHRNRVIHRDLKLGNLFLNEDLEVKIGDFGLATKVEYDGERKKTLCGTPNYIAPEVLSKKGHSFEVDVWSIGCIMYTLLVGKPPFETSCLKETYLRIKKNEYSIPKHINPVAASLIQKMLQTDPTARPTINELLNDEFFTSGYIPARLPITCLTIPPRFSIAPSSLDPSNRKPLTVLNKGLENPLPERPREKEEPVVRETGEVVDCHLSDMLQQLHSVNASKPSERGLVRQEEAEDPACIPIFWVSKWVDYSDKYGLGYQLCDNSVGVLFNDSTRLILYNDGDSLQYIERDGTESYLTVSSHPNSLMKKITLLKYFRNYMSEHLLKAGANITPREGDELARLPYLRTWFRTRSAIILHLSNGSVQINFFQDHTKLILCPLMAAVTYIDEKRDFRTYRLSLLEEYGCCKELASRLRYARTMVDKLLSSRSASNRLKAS
Sequence of Calcium/calmodulin-dependent protein kinase type 1G (Homo sapiens) (Q96NX5 whole entry): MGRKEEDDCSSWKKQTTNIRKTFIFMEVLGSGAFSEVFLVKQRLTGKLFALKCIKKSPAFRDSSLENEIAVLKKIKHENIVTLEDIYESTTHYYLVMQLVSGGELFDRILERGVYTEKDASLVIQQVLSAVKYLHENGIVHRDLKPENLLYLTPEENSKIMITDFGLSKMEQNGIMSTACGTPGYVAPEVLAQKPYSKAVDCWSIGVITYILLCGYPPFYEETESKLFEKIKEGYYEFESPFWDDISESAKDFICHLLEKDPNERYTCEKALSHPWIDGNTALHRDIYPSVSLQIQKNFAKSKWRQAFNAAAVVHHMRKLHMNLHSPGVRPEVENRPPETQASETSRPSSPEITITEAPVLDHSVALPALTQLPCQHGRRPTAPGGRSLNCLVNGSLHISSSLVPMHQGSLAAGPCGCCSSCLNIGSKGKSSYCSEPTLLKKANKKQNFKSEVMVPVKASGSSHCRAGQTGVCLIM
Sequence of Calcium/calmodulin-dependent protein kinase type 1D (Homo sapiens) (Q8IU85 whole entry, looked up): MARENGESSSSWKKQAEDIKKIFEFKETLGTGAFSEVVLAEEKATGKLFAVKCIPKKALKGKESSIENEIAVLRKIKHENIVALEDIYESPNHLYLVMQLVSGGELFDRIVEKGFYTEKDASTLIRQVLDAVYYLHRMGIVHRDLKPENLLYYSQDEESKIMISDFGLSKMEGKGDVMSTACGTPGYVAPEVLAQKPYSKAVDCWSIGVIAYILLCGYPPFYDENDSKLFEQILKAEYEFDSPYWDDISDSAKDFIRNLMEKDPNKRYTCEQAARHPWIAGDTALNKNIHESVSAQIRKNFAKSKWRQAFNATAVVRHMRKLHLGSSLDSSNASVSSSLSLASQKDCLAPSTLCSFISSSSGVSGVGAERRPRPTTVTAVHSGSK
Sequence of Serine/threonine-protein kinase 25 (Homo sapiens) (O00506 whole entry, looked up): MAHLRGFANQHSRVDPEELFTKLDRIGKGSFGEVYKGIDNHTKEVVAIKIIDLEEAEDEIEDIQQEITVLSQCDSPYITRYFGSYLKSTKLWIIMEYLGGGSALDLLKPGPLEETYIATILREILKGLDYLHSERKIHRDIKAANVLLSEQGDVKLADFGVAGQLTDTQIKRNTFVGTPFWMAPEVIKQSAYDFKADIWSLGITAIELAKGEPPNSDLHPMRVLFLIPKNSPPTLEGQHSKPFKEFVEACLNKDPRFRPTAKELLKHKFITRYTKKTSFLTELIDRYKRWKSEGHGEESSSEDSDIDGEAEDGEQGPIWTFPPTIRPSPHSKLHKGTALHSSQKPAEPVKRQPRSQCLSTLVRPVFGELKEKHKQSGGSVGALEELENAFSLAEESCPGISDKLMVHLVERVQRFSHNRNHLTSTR
Sequence of Cyclin-dependent kinase 16 (Homo sapiens) (Q00536 whole entry): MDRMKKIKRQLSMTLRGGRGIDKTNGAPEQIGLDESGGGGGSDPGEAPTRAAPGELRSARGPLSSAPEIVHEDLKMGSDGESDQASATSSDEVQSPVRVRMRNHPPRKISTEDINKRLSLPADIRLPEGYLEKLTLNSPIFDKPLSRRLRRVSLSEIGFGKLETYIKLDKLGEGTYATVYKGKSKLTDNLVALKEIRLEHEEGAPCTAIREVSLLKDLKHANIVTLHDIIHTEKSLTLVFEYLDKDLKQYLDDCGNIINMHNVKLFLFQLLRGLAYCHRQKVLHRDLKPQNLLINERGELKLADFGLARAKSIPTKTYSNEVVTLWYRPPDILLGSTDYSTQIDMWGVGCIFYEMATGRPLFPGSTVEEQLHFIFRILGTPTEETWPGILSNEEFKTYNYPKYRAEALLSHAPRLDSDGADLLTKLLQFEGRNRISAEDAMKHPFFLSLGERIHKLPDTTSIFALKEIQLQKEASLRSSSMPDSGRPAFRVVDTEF
Sequence of Ribosomal protein S6 kinase alpha-3 (Homo sapiens) (P51812 whole entry): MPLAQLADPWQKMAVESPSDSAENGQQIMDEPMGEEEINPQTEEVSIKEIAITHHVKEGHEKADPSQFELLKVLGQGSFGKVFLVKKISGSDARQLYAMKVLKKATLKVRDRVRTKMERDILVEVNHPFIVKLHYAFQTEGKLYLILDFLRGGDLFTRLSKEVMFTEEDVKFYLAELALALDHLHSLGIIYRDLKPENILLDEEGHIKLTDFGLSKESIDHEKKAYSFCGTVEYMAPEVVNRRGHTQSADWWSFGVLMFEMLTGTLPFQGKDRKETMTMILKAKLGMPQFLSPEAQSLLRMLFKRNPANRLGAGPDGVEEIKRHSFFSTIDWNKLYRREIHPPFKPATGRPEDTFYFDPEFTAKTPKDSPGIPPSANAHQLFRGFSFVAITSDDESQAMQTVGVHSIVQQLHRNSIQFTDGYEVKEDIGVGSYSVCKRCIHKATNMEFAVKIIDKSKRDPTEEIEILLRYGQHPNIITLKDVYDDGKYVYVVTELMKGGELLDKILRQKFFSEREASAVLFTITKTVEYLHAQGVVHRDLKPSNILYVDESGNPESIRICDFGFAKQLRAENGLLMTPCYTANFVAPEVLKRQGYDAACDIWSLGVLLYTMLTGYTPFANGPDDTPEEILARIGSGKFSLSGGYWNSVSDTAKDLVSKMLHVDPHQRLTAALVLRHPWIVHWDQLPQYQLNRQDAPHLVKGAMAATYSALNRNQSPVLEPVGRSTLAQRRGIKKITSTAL
Sequence of Serine/threonine-protein kinase Nek6 (Homo sapiens) (Q9HC98 whole entry): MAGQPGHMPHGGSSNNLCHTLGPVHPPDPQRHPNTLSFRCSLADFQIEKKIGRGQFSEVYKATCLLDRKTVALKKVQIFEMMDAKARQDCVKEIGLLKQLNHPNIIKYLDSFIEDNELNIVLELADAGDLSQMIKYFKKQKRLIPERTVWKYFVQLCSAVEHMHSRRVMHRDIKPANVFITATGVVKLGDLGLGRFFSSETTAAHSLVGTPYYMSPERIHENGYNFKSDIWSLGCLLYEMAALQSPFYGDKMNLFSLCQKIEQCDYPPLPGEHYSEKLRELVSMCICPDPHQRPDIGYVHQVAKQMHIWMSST

On to `N#C/C(=C(/N)Sc1ccc(N)cc1)c1ccccc1C(F)(F)F`, for which the ΔTm was 0.5 °C in test [1]; 0 °C in test [2]; 0.3 °C in test [3]; -0.2 °C in [4]; 0 °C in test [5]; 0.2 °C in test [6]. Further, the ΔTm in test [7] was 0.1 °C; in test [8], -0.2 °C; in test [9] it was 0.6 °C; in [10], 0.8 °C; in [11] it was 0.5 °C; in test [12] it was 0.2 °C. In addition, the ΔTm is -0.1 °C in test [13]; -0.8 °C in test [14]; 0 °C in test [15]; -0.4 °C in [16]; 0.4 °C in test [17]; 1 °C in [18]. The ΔTm is -0.2 °C in [19], -0.1 °C in test [20] and -0.2 °C in test [21].
Take `CN(C)c1ncnc2nc[nH]c12` [DIMETHYLADENINE]: the thermal shift (ΔTm) is -1 °C in test [1]; -0.3 °C in test [2]; 0 °C in [3]; 1 °C in [4]; 0.6 °C in test [5]; 0.2 °C in [6]. Also, the ΔTm is -0.2 °C in test [7]; 0.1 °C in test [8]; 0.5 °C in [9]; -0.2 °C in [10]; 0.1 °C in test [11]; -0.1 °C in test [12]. The ΔTm was 0.4 °C in test [13]; -0.6 °C in test [14]; 0.9 °C in [15]; 0.5 °C in test [16]; 0.3 °C in [17]; 0 °C in test [18]. Besides, the ΔTm in test [19] came to 0.5 °C; in test [20], 0 °C; in test [21], 0.9 °C.
As to `Cc1ccc(NC(=O)c2cccc(N(C)C)c2)cc1NC(=O)c1ccc(O)cc1`, the thermal shift (ΔTm) was -0.1 °C in test [1]; 0.3 °C in test [2]; 0.3 °C in test [3]; 0.4 °C in test [4]; 0.2 °C in test [5]; 0 °C in test [6]. Moreover, the ΔTm in test [7] came out at 0 °C; in [8], 0.2 °C; in test [9] it was 0.3 °C; in test [10], 0.4 °C; in test [11], 0 °C; in [12], 0.4 °C. The ΔTm is 0.2 °C in test [13]; -0.1 °C in test [14]; -0.3 °C in [15]; 0.4 °C in test [16]; 0 °C in test [17]; 1 °C in [18]. The thermal shift (ΔTm) is 0.9 °C in test [19], 0.3 °C in test [20] and -0.4 °C in [21].
For the compound `Brc1c(Br)c(Br)c2[nH]nnc2c1Br` [TETRABROMOBENZOTRIAZOLE], the ΔTm is -1.2 °C in [1]; -0.5 °C in [2]; -1.6 °C in [3]; -0.5 °C in [4]; 1.5 °C in test [5]; 2.4 °C in test [6]. For the same compound, the thermal shift (ΔTm) in test [7] was -0.7 °C; in test [8], 3.1 °C; in test [9], -0.3 °C; in test [10], 1.6 °C; in [11], 0.4 °C; in test [12] it was -0.7 °C. Also, the ΔTm in test [13] was 0 °C; in test [14], 0.4 °C; in test [15], 0.7 °C; in test [16] it was -0.3 °C; in [17], 1.3 °C; in test [18], 1.3 °C. In addition, the values for the ΔTm in test [19], in [20] and in test [21] were 2.3 °C, 0.6 °C and 3.6 °C, respectively.
Regarding `COc1cc(C[C@H]2C(=O)OC[C@@H]2Cc2ccc(OC)c(OC)c2)ccc1O` [ARCTIGENIN], the ΔTm in test [1] is 0.4 °C; in test [2], -0.1 °C; in test [3], 0.1 °C; in test [4], -0.9 °C; in [5], -0.2 °C; in [6] it was 0.3 °C. Further, the ΔTm in test [7] is 0.2 °C; in test [8] it was -0.2 °C; in [9], 0.2 °C; in test [10] it was 0 °C; in test [11], -0.5 °C; in test [12], -0.3 °C. Moreover, the thermal shift (ΔTm) in [13] is -0.4 °C; in test [14], -0.9 °C; in test [15], 0.1 °C; in test [16] it was -0.7 °C; in test [17] it was 0.5 °C; in test [18], 0.2 °C. Moreover, the ΔTm was 0.1 °C in [19], -0.7 °C in test [20] and -0.3 °C in test [21].
On to `CC(C)n1cnc2/c(=N/c3cccc(Cl)c3)nc(NCCO)[nH]c21`, for which the thermal shift (ΔTm) in [1] turned out to be 0.4 °C; in test [2], 0.1 °C; in test [3], 0.7 °C; in test [4] it was 2.3 °C; in [5] it was 4.6 °C; in test [6] it was 0.3 °C. Moreover, the ΔTm in test [7] is -0.4 °C; in test [8] it was 1 °C; in test [9] it was 7 °C; in test [10], 0.2 °C; in [11], 1.2 °C; in test [12], 0.1 °C. Moreover, the ΔTm in [13] was 0.2 °C; in test [14], 0.3 °C; in test [15], 2.9 °C; in [16], -0.1 °C; in test [17], 2.7 °C; in test [18], 0.9 °C. In addition, the values for the ΔTm in test [19], in [20] and in test [21] were 7.5 °C, 0.1 °C and 2.2 °C, respectively.
Take `Cc1nc2sccn2c(=O)c1CCN1CCC(=C(c2ccccc2)c2ccc(F)cc2)CC1`: the ΔTm in [1] was 0 °C; in [2] it was -0.5 °C; in test [3], 0.5 °C; in [4], 0.6 °C; in [5], 2.8 °C; in test [6] it was 0.5 °C. The ΔTm in test [7] was -0.4 °C; in test [8], 4.5 °C; in [9], 0.3 °C; in [10], 1.8 °C; in [11], -0.2 °C; in test [12], 0.4 °C. Further, the ΔTm in test [13] is 0 °C; in test [14], -0.1 °C; in test [15], 0.3 °C; in [16], -0.5 °C; in test [17], 0.6 °C; in [18], 0.4 °C. Besides, the ΔTm in test [19] worked out at 0.6 °C; in [20] it was 0.1 °C; in test [21] it was 4.2 °C.

The record behind these values is ChEMBL document CHEMBL1145498, “A systematic interaction map of validated kinase inhibitors with Ser/Thr kinases” (Proc Natl Acad Sci U S A, 2007).
